Results as given in patent publication US5951473A, “Determination of intracellular sodium and potassium ions by NMR” (Board of Regents, The University of Texas System, priority 1997, dated 1999).
Entries after “also recorded” stand apart in the source; their conditions may differ.

How the values were obtained:
sodium in in vivo liver [1] = experiment: In vivo liver ^23 Na NMR with DyTTHA^3- (Blum et al., literature); settings: dose of Blum et al. versus present methods
Method: This dose is about 4-6 times greater than a typical dose of MRI contrast agent (0.1-0.2 mmole kg^-1 ), such as GdDTPA^2-. The inventors are aware of only one other ^23 Na NMR study of in vivo liver using a SR. Blum, H., Osbakken, M. D. & Johnson, R. G. (1991) Magn. Reson. Med. 18, 348-357 infused 6 mmoles kg^-1 h^-1 of DyTTHA^3- for 60 to 90 minutes to discriminate between intra- and extracellular sodium. This SR dose is 8-12 times larger than the amount of TmDOTP^5- employed using the methods of the present invention. After DyTTHA^3- infusion, Blum, H., Osbakken, M. D. & Johnson, R. G. (1991) Magn. Reson. […] This is extremely important for valid measurement of tissues volumes, relaxation rates, and ^23 Na visibility during physiological interventions.

sodium in in vivo liver [2] = settings: cited from earlier work
[3] = ^23 Na NMR of blood and urine samples during shift reagent infusion; type: in vivo, rat (Sprague-Dawley); settings: after DyTTHA^3- infusion
Excerpt: ^23 Na spectra obtained from the analysis of the blood and urine samples collected during infusion of either TmDOTP^5- or DyTTHA^3- were compared with the respective in vivo kidney spectrum. […] There was a signal from the urine sample at abut 35 ppm after infusion of DyTTHA^3- also, though there was no distinguishable signal in the corresponding in vivo spectrum (FIG. 3A and FIG. 3B).

[4] = tested on: intra- and extracellular sodium of rat liver; experiment: In vivo ^23 Na NMR shift experiments in rat liver during shift reagent infusion; settings: for ^23 Na shift and line broadening in words: DyTTHA^3- versus TmDOTP^5-; for dose required to induce a ^23 Na shift of 5 ppm: body weight; for peak width at half height, extracellular resonance / peak width at half height, intracellular resonance: resonances separated by 5 ppm
Method: (§1) Animal Preparation: Male Sprague-Dawley rats weighing 350-450 g were initially anesthetized by intramuscular injection of a 0.5 ml mixture of ketamine (13 mg/ml) and xylazine (87 mg/ml). Both jugular veins and a carotid artery were cannulated through a midline neck incision. One jugular vein was used to maintain the anesthesia (2 mg/ml ketamine, 0.25 mg/ml xylazine in 5% guaifenesin) at a rate of 2-3 ml/hour, and the other was used to infuse SR. The blood pressure and heart rate were continuously monitored from the carotid artery during the NMR experiments using a Gould transducer and Coulbourn polygraph. A tracheotomy was performed and the rat was connected to a respirator and maintained at a respiration rate of 90 breaths/minute and a tidal volume of 3 cc. The rats were also nephrectomized to eliminate clearance of the shift reagent, except in those animals where SR clearance was measured. Livers were exposed through a subcostal incision and a surface coil was positioned directly on the liver with the animal in a supine position. The animals were maintained at 37° C. using a water recirculating heating pad.
(§2) SR Infusion: Stock solutions of 80 mM TmDOTP^5- or 400 mM DyTTHA^3- were initially infused at a rate of 2 ml/hr for 6 minutes. […] After achieving a chemical shift difference of 5-7 ppm between the intra- and extracellular sodium resonances, the infusion rate was reduced to 2-3 ml/hr. No Ca^2+ was added during infusion of either SR.
(§3) NMR Data Collection: All in vivo NMR experiments were performed on a 4.7-T 40-cm GE CSI Omega spectrometer (GE NMR Instruments, Fremont, Calif.). Shimming was performed on the sodium signal. A sodium line width of 35-40 Hz was typical. Both ^23 Na and ^31 P spectra were collected in an interleaved fashion during TmDOTP^5- infusion. […] The coil performance was optimized such that there was less sensitivity loss at the ^31 P frequency as compared to at the ^23 Na frequency.
(§4) Switching of these parameters and the spectrometer frequency was executed by a script in an automated fashion. To take advantage of the short spin-lattice relaxation time of sodium, two ^23 Na acquisitions were collected between each ^31 P acquisition. Cyclops phase cycling was used for both the nuclei. […] The FIDs were Fourier transformed after base-line correction and a single exponential multiplication corresponding to 10 Hz line broadening for ^23 Na and a 20 Hz line broadening for ^31 P.

rat muscle = settings: cited from earlier work
kidney sodium = experiment: In vivo ^23 Na NMR of kidney during shift reagent infusion; set-up: species or system rat (Sprague-Dawley)
Method: Male Sprage-Dawley rats were prepared for magnetic resonance exam and TmDOTP^5- was infused into animals as described in Example 2. TmDOTP^5- produced well resolved ^23 Na resonances in the kidney with a separation of 7-10 ppm between the extra- and intracellular Na^+ resonances after infusion of about 0.681 mmoles of the SR per Kilogram of Body Weight (KgBW). The inventors also observed a third ^23 Na resonance, broader than the extracellular resonance and shifted to about 35 ppm. This is the first time this resonance has been observed in any SR aided experiment in any organ. After about 10 minutes of TmDOTP^5- infusion (infusion dose 0.147 mmoles/KgBW), one broad shifted resonance became apparent at about 15 ppm. Continued infusion of the SR shifted this resonance further upfield. Simultaneously, another resonance became visible as a high frequency shoulder on the unshifted resonance after about 14 minutes of infusion (infusion dose 0.254 mmoles/KgBW). Finally, the three resonances became clearly resolved after about 17 minutes of infusion (infusion dose 0.334 mmoles/KgBW).
The single ^23 Na resonance broadened with infusion of this shift reagent and the intracellular Na^+ resonance became evident as a shoulder on the shifted extracellular Na^+ resonance only after 3-5 mmoles of DyTTHA^3- /KgBW had been infused.

in vivo exposed livers = settings: rat
Method: Animal Preparation: Male Sprague-Dawley rats weighing 350-450 g were initially anesthetized by intramuscular injection of a 0.5 ml mixture of ketamine (13 mg/ml) and xylazine (87 mg/ml). Both jugular veins and a carotid artery were cannulated through a midline neck incision. One jugular vein was used to maintain the anesthesia (2 mg/ml ketamine, 0.25 mg/ml xylazine in 5% guaifenesin) at a rate of 2-3 ml/hour, and the other was used to infuse SR. The blood pressure and heart rate were continuously monitored from the carotid artery during the NMR experiments using a Gould transducer and Coulbourn polygraph. A tracheotomy was performed and the rat was connected to a respirator and maintained at a respiration rate of 90 breaths/minute and a tidal volume of 3 cc. The rats were also nephrectomized to eliminate clearance of the shift reagent, except in those animals where SR clearance was measured. […]
The resting transmembrane potential (-Em) was measured in in vivo exposed livers using a modified Ling-Gerard ultramicroelectrode Holliday, R. L., Illner, H. P. & Shires, G. T. (1981) J. Surg. […] Serum sodium, potassium, and hemoglobin concentrations as well as arterial pH, pCO2 and pO2 were monitored throughout the infusion protocol using a standard clinical blood gas analyzer.

[5] = rat, in vivo
Method: Rats with third degree burns covering 40% of the body surface were employed. Adult male Sprague-Dawley rats (300-500 g) were randomly divided into burn (n=7) and sham-burn (n=4) groups. […] Rats were deeply anesthetized with methoxyflurane, shaved, and secured in a template device. A full-thickness scald burn over 40% of the total body surface area was produced by immersing the exposed body surface into a 100° C. water bath for 12 s on the back and sides. The animals were quickly dried after each exposure to avoid additional injury. No postburn analgesics were administered for this model, since the burn injury was a full-thickness burn that destroys all cutaneous nerve endings; as a result, the rats experienced no postburn pain as evidenced by their eating, drinking, moving freely around the cage, and responding to external stimulus. The sham-burn rats were anesthetized and handled in an identical manner except they were exposed to room temperature water. After recovery from inhalation anesthesia, the animals were placed in separate cages and given food and water ad libitum.
At 24-hr postburn, the animals were anesthetized by intramuscular injection of a 0.5 ml mixture of ketamine (87 mg/ml) and xylazine (13 mg/ml) and were placed on a warming blanket. The left femoral vein, left femoral artery, and left jugular vein were cannulated for supplemental anesthesia for arterial blood pressure measurement and for infusion of the shift reagent, respectively. Heparinized saline, 9 U/ml, was used in the arterial line. A midline laparotomy was performed to expose the liver, and the xiphoid process was removed. Each rat was then secured in a cradle in an upright position for the MRS experiments. A 2.2 cm diameter surface coil dual tuned to 47 MHz for ^23 Na and 72 MHz for ^31 P was positioned over the intersection of the three major lobes and the abdominal incision was sutured in separate layers around the insulated coil leads to prevent fluid and heat loss during NMR data collection. […]

[6] = Bansal et al. 1992; cited from earlier work
rat brain = settings: cited from earlier work
[7] = tested on: rat liver phosphate metabolites and intracellular pH; experiment: In vivo ^31 P NMR (interleaved) of rat liver during shift reagent infusion
Method: as §1, §2, §3, §4

[8] = Physiological measurements (heart rate, pressure, blood serum and gas values) in rats during TmDOTP^5- infusion; settings: doses required for baseline resolution of ^23 Na resonances
Method: as §1, §2
(§5) Several key physiological measurements were obtained on a group of animals (n=7) during infusion of TmDOTP^5- using the same protocol as used during all subsequent NMR measurements. […] Excess Ca^2+ was not coadded with the SR in these experiments, unlike in isolated perfused heart experiments where excess Ca^2+ must be coadded with TmDOTP^5- to maintain an extracellular free [Ca^2+ ] of about 1 mM.
(§6) Serum sodium, potassium, and hemoglobin concentrations as well as arterial pH, pCO2 and pO2 were monitored throughout the infusion protocol using a standard clinical blood gas analyzer.

[9] = tested on: rat liver Na^+ (i) and Na^+ (e)
Method: Rats with third degree burns covering 40% of the body surface were employed. Adult male Sprague-Dawley rats (300-500 g) were randomly divided into burn (n=7) and sham-burn (n=4) groups. […] Rats were deeply anesthetized with methoxyflurane, shaved, and secured in a template device. A full-thickness scald burn over 40% of the total body surface area was produced by immersing the exposed body surface into a 100° C. water bath for 12 s on the back and sides. The animals were quickly dried after each exposure to avoid additional injury. […] The sham-burn rats were anesthetized and handled in an identical manner except they were exposed to room temperature water. After recovery from inhalation anesthesia, the animals were placed in separate cages and given food and water ad libitum.
At 24-hr postburn, the animals were anesthetized by intramuscular injection of a 0.5 ml mixture of ketamine (87 mg/ml) and xylazine (13 mg/ml) and were placed on a warming blanket. The left femoral vein, left femoral artery, and left jugular vein were cannulated for supplemental anesthesia for arterial blood pressure measurement and for infusion of the shift reagent, respectively. Heparinized saline, 9 U/ml, was used in the arterial line. A midline laparotomy was performed to expose the liver, and the xiphoid process was removed. Each rat was then secured in a cradle in an upright position for the MRS experiments. A 2.2 cm diameter surface coil dual tuned to 47 MHz for ^23 Na and 72 MHz for ^31 P was positioned over the intersection of the three major lobes and the abdominal incision was sutured in separate layers around the insulated coil leads to prevent fluid and heat loss during NMR data collection.
Concurrent ^23 Na and ^31 P spectra were collected using a Nicolet NT 180 spectrometer with an Oxford 4.2 T vertical bore (130 mm) superconducting magnet. The field homogeneity was adjusted first with the ^1 H free induction decay (FID) from the liver and then with the ^23 Na FID for maximum field uniformity. A ^23 Na line width of 40-50 Hz was typical. ^23 Na spectra were generated from the summed FIDs of 100 excitation pulses (40 μs) at 105-ms intervals using 1,024 word data files and a sweep width of ±3000 Hz. The spectra were zero-filled to 4,096 points before Fourier transformation. The relative areas of the Na^+ (i) and Na^+ (e) resonances in the ^23 Na spectra and of the β-ATP and Pi resonances in the phosphorus spectra were determined with the GEMCAP curve analysis program supplied with the Nicolet software.
After initial baseline spectra were obtained, infusion of TmDOTP^5 was begun at 0.5 mmol kg^-1 h^-1, and the rate was increased slowly to 1.2 or 1.6 mmol kg^-1 h^- over a period of 12 min. […]

[10] = rat, in vivo; remark: listed apart in the source
Method: as §1, §2, §5, §6

[11] = live rats, Bansal et al. 1992; cited from earlier work
rat liver = settings: in vivo, iv
Method: as §1
The washout rate of TmDOTP^5- was measured by monitoring the frequency of the shifted ^23 Na peak after stopping the infusion.

[12] = tested on: renal phosphate metabolites; experiment: In vivo ^31 P NMR of kidney and blood pressure during TmDOTP^5- infusion; set-up: species or system rat (Sprague-Dawley)

O=C([O-])CN(CCN(CCN(CC(=O)[O-])CC(=O)[O-])CC(=O)[O-])CCN(CC(=O)[O-])CC(=O)[O-].[Dy+3] [DyTTHA^3-, dysprosium(III)triethylenetetraminehexaacetate]
dose ratio of DyTTHA^3- versus TmDOTP^5- (sodium in in vivo liver [1]): 8-12 times | resolution of sodium resonances in words (sodium in in vivo liver [2]; 6 mmoles kg^-1 h^-1 for 60 to 90 minutes): very broad and were not resolved | extracellular Na^+ signal shift in words (sodium in in vivo liver [2]; Blum et al.): shifted downfield by about the same amount as in the present study | shift of ^23 Na signal from urine sample [3]: ~35 ppm | broadening factor of intracellular resonance line-width, DyTTHA^3- versus TmDOTP^5- ([4]; rat liver): ~3 factor | resolution of intra- and extracellular ^23 Na resonances in words ([4]; rat liver): very broad and not resolved; also recorded: did not improve the resolution of intra- and extracellular resonances | ^23 Na shift and line broadening in words ([4]; rat liver): much lower ^23 Na shift per unit concentration and more severe line broadening | dose required to induce a ^23 Na shift of 5 ppm ([4]; rat liver): 3.74 mmol/kg | peak width at half height, extracellular resonance ([4]; rat liver): 300 Hz | peak width at half height, intracellular resonance ([4]; rat liver): 195 Hz | hemodynamic stability during infusion ([4]; versus TmDOTP^5-): hemodynamically more stable | washout t1/2 (rat muscle): 44 min | dose at which intracellular Na^+ resonance became evident as a shoulder (kidney sodium; kidney): 3-5 mmoles/KgBW | dose ratio versus TmDOTP^5- for comparable shift (kidney sodium; kidney): 5-8 times | resolution of Na^+ resonances in kidney in words (kidney sodium; kidney in vivo): did not produce resolved Na^+ resonances | third highly shifted Na^+ resonance in kidney in words (kidney sodium; kidney in vivo): no indication of the existence of the third highly shifted Na^+ resonance

thulium(III) 1,4,7,10-tetraazacyclododecane-1,4,7,10-tetrakis (methylene phosphonate) [TmDOTP^5-]
resting transmembrane potential (-Em) of liver (in vivo exposed livers): tended to increase during the highest infusion rates | heart rate throughout the study [5]: 261±19 beats/min | mean arterial blood pressure (MAP) after infusion, burn group [5]: 65±4 mm Hg | mean arterial blood pressure (MAP) after infusion, sham burn group [5]: 78±3 mm Hg | crossing of the blood brain barrier [6]: does not cross the blood brain barrier | washout t1/2 (rat brain): 37 min | dose at which intra- and extracellular ^23 Na resonances were clearly resolved ([4]; rat liver): 0.55 mmol/kg | intracellular Na^+ peak intensity with further infusion ([4]; rat liver): did not change with further infusion | resolution of intra- and extracellular ^23 Na resonances in words ([4]; rat liver): sharp and well resolved; also recorded: baseline resolved peaks | ^23 Na shift and line broadening in words ([4]; rat liver): larger ^23 Na chemical shift per unit concentration | paramagnetic shift of extracellular Na^+ ([4]; rat liver, after 0.65 mmoles kg^-1): approximately 5 ppm | dose required to induce a ^23 Na shift of 5 ppm ([4]; rat liver): 0.65 mmol/kg | peak width at half height, extracellular resonance ([4]; rat liver): 80 Hz | peak width at half height, intracellular resonance ([4]; rat liver): 70 Hz | ^31 P resonances / phosphate metabolites ([7]; rat liver during infusion): without producing any changes in phosphate metabolite resonances; also recorded: unaffected | intracellular pH ([7]; rat liver, from shift of inorganic phosphate peak): without producing any changes in phosphate metabolite resonances or intracellular pH; also recorded: unaffected | liver physiology / tolerability in words [8]: may be safely used in intact animal studies without the co-addition of Ca^2+; also recorded: basic liver physiology is largely unaffected; also recorded: quite non-perturbing to the animal | total dosage needed to produce an equivalent Na^+ shift, burned animals ([9]; burned rats, liver): 0.44 ± 0.04 mmol | total dosage needed to produce an equivalent Na^+ shift, control animals ([9]; control rats, liver): 0.64 ± 0.08 mmol | Na^+ (i) concentration in hepatic cells on infusion ([9]; rat, in vivo): did not alter Na^+ (i) concentration in hepatic cells | ^31 P spectra of livers during infusion ([9]; rat, in vivo): did not change appreciably | arterial pCO2 [10]: 45±2 mm Hg | arterial pH [10]: 7.36±0.02 | arterial pO2 [10]: 120±8 mm Hg | developed pressure during infusion [10]: 40±5 mm Hg | free Ca^2+ levels in blood serum [10]: relatively small change | heart rate during infusion [10]: 240±20 | hemoglobin [10]: 13 ± 1 g/dL | increase in serum sodium [10]: 10 meq/L | mean arterial pressure (MAP) during infusion [10]: ~70 mm Hg | serum potassium [10]: 3.5±0.2 meq/L | serum sodium after infusion [10]: 158±5 meq/L | intracellular Na^+ resonance intensity with further infusion, kidney (kidney sodium; kidney in vivo): does not change with further SR infusion | resolution of Na^+ resonances in kidney in words (kidney sodium; kidney in vivo): well resolved | separation between extra- and intracellular Na^+ resonances (kidney sodium; kidney, about 0.681 mmoles/KgBW): 7-10 ppm | shift of broad shifted resonance (kidney sodium; kidney, about 10 minutes, 0.147 mmoles/KgBW): about 15 ppm | infusion dose at which second resonance became visible as shoulder (kidney sodium; kidney, about 14 minutes): 0.254 mmoles/KgBW | infusion dose at which three resonances became clearly resolved (kidney sodium; kidney, about 17 minutes): 0.334 mmoles/KgBW | shift of third ^23 Na resonance (kidney sodium; kidney, after TmDOTP^5- infusion): about 35 ppm | Ca^2+ release from body stores during infusion [11]: rapidly released from body stores | washout t1/2 (rat liver): 9 min | renal high energy phosphate levels ([12]; kidney): unaffected | ^31 P resonance areas and chemical shifts, kidney ([12]; kidney during infusion): did not produce any change | blood pressure of the animals ([12]; kidney study): small drop in blood pressure
